According to paper PMC5974779, “Prediction of Drug-Induced Hepatotoxicity Using Long-Term Stable Primary Hepatic 3D Spheroid Cultures in Chemically Defined Conditions” (Toxicological Sciences, 2018):

Test system: primary human hepatocytes (PHH) 3D spheroids
Conditions: not given

SMILES	Chemically defined spheroids (this study) 20x	hepatotoxicity evaluation in CD-spheroids
CCCCNc1cc(C(=O)O)cc(S(N)(=O)=O)c1Oc1ccccc1 [Bumetanide]	Negative	–
Clc1ccc2c(c1)C(N1CCNCC1)=Nc1ccccc1O2 [Amoxapine]	Negative	not found to be toxic at any concentration tested
COC(=O)C1=C(C)NC(C)=C(C(=O)OCC(C)C)C1c1ccccc1[N+](=O)[O-] (centres unmarked) [Nisoldipine]	Negative	–
CNC(=O)Oc1ccc2c(c1)[C@]1(C)CCN(C)[C@@H]1N2C [Physostigmine]	Negative	–
Cc1cc(C2CCCCC2)n(O)c(=O)c1 [Ciclopirox]	Negative	–
O=C1NC(=O)C(c2ccccc2)(c2ccccc2)N1 [Phenytoin]	Negative	–
Fc1ccc([C@@H]2CCNC[C@H]2COc2ccc3c(c2)OCO3)cc1 [Paroxetine]	Negative	–
CC[C@@H]1C(=O)OC[C@@H]1Cc1cncn1C [Pilocarpine]	Negative	–
CN(C)C(=O)Oc1cc(OC(=O)N(C)C)cc(C(O)CNC(C)(C)C)c1 (centres unmarked) [Bambuterol]	Negative	–

Test system: clinical DILI in man
Conditions: DILI classification score; ref Suzuki et al. (2010); cited from earlier work

SMILES	Suzuki et al. (2010)
Fc1ccc([C@@H]2CCNC[C@H]2COc2ccc3c(c2)OCO3)cc1 [Paroxetine]	2

Same assay, conditions: FDA drug labeling DILI concern; ref Chen et al., 2011; cited from earlier work

SMILES	FDA (Severity)
Fc1ccc([C@@H]2CCNC[C@H]2COc2ccc3c(c2)OCO3)cc1 [Paroxetine]	less DILI concern

Same assay, conditions: FDA drug labeling DILI score; ref Chen et al., 2011; cited from earlier work

SMILES	FDA (0-8)
Clc1ccc2c(c1)C(N1CCNCC1)=Nc1ccccc1O2 [Amoxapine]	3
CNC(=O)Oc1ccc2c(c1)[C@]1(C)CCN(C)[C@@H]1N2C [Physostigmine]	0
Fc1ccc([C@@H]2CCNC[C@H]2COc2ccc3c(c2)OCO3)cc1 [Paroxetine]	8
CC[C@@H]1C(=O)OC[C@@H]1Cc1cncn1C [Pilocarpine]	3

Same assay, conditions: clinical DILI classification in man (POS/NEG); cited from earlier work

SMILES	DILI in vivo
Clc1ccc2c(c1)C(N1CCNCC1)=Nc1ccccc1O2 [Amoxapine]	NEG
CNC(=O)Oc1ccc2c(c1)[C@]1(C)CCN(C)[C@@H]1N2C [Physostigmine]	NEG
Cc1cc(C2CCCCC2)n(O)c(=O)c1 [Ciclopirox]	NEG
Fc1ccc([C@@H]2CCNC[C@H]2COc2ccc3c(c2)OCO3)cc1 [Paroxetine]	NEG
CC[C@@H]1C(=O)OC[C@@H]1Cc1cncn1C [Pilocarpine]	NEG
CN(C)C(=O)Oc1cc(OC(=O)N(C)C)cc(C(O)CNC(C)(C)C)c1 (centres unmarked) [Bambuterol]	NEG

Same assay, conditions: clinical DILI classification used in this study, Supplementary Table 2; ref Chen et al., 2011; Guo et al., 2005; O'Brien et al., 2006; Sakatis et al., 2012; Suzuki et al., 2010; Xu et al., 2008; cited from earlier work

SMILES	Classified as
Clc1ccc2c(c1)C(N1CCNCC1)=Nc1ccccc1O2 [Amoxapine]	NEG
CNC(=O)Oc1ccc2c(c1)[C@]1(C)CCN(C)[C@@H]1N2C [Physostigmine]	NEG
Cc1cc(C2CCCCC2)n(O)c(=O)c1 [Ciclopirox]	NEG
Fc1ccc([C@@H]2CCNC[C@H]2COc2ccc3c(c2)OCO3)cc1 [Paroxetine]	NEG
CC[C@@H]1C(=O)OC[C@@H]1Cc1cncn1C [Pilocarpine]	NEG
CN(C)C(=O)Oc1cc(OC(=O)N(C)C)cc(C(O)CNC(C)(C)C)c1 (centres unmarked) [Bambuterol]	NEG

Same assay, conditions: clinical DILI classification, Supplementary Table 1; ref Chen et al., 2011; Guo et al., 2005; O'Brien et al., 2006; Sakatis et al., 2012; Suzuki et al., 2010; Xu et al., 2008; cited from earlier work

SMILES	DILI in vivo
Clc1ccc2c(c1)C(N1CCNCC1)=Nc1ccccc1O2 [Amoxapine]	NEG
CNC(=O)Oc1ccc2c(c1)[C@]1(C)CCN(C)[C@@H]1N2C [Physostigmine]	NEG
Cc1cc(C2CCCCC2)n(O)c(=O)c1 [Ciclopirox]	NEG
Fc1ccc([C@@H]2CCNC[C@H]2COc2ccc3c(c2)OCO3)cc1 [Paroxetine]	NEG
CC[C@@H]1C(=O)OC[C@@H]1Cc1cncn1C [Pilocarpine]	NEG
CN(C)C(=O)Oc1cc(OC(=O)N(C)C)cc(C(O)CNC(C)(C)C)c1 (centres unmarked) [Bambuterol]	NEG

Same assay, conditions: clinical DILI classification; ref Xu et al. (2008); cited from earlier work

SMILES	Xu et al. (2008)
Clc1ccc2c(c1)C(N1CCNCC1)=Nc1ccccc1O2 [Amoxapine]	Negative
CNC(=O)Oc1ccc2c(c1)[C@]1(C)CCN(C)[C@@H]1N2C [Physostigmine]	Negative
Fc1ccc([C@@H]2CCNC[C@H]2COc2ccc3c(c2)OCO3)cc1 [Paroxetine]	Negative
CC[C@@H]1C(=O)OC[C@@H]1Cc1cncn1C [Pilocarpine]	Negative

Same assay, conditions: clinical hepatotoxicity classification; ref O'Brien et al. (2003); cited from earlier work

SMILES	O'Brien et al. (2003)
Fc1ccc([C@@H]2CCNC[C@H]2COc2ccc3c(c2)OCO3)cc1 [Paroxetine]	Moderately

Same assay, conditions: in vivo; cited from earlier work

SMILES	Classified as	Clinical DILI class (panel heading of Figure 4)	DILI in vivo	FDA (0-8)	Xu et al. (2008)	O'Brien et al. (2003)	FDA (Severity)	Guo et al. (2005)	Sakatis et al. (2012)	Suzuki et al. (2010)
CCCCNc1cc(C(=O)O)cc(S(N)(=O)=O)c1Oc1ccccc1 [Bumetanide]	POS	High DILI concern	POS	3	Positive	–	–	–	–	–
CNC(=O)Oc1ccc2c(c1)[C@]1(C)CCN(C)[C@@H]1N2C [Physostigmine]	–	–	–	–	–	Non-toxic	–	–	–	–
O=C1NC(=O)C(c2ccccc2)(c2ccccc2)N1 [Phenytoin]	POS	Severe DILI	POS	8	Positive	–	less DILI concern	2	Hepatotoxic	2

Same assay, conditions: in vivo; cited from earlier work

SMILES	Type of DILI
O=C1NC(=O)C(c2ccccc2)(c2ccccc2)N1 [Phenytoin]	Hepatocellular injury or Mixed hepatitis

Same assay, conditions: reported pattern of liver damage, Supplementary Table 2; ref literature; cited from earlier work

SMILES	Type of DILI
Clc1ccc2c(c1)C(N1CCNCC1)=Nc1ccccc1O2 [Amoxapine]	Non-hepatotoxic
CNC(=O)Oc1ccc2c(c1)[C@]1(C)CCN(C)[C@@H]1N2C [Physostigmine]	Non-hepatotoxic
Cc1cc(C2CCCCC2)n(O)c(=O)c1 [Ciclopirox]	Non-hepatotoxic
Fc1ccc([C@@H]2CCNC[C@H]2COc2ccc3c(c2)OCO3)cc1 [Paroxetine]	Non-hepatotoxic
CC[C@@H]1C(=O)OC[C@@H]1Cc1cncn1C [Pilocarpine]	Non-hepatotoxic
CN(C)C(=O)Oc1cc(OC(=O)N(C)C)cc(C(O)CNC(C)(C)C)c1 (centres unmarked) [Bambuterol]	Non-hepatotoxic

Same assay, conditions: structural analogue pairs, Figure 5; ref Chen et al., 2011; Xu et al., 2008 and others; cited from earlier work

SMILES	Clinical DILI classification (Figure 5)
Clc1ccc2c(c1)C(N1CCNCC1)=Nc1ccccc1O2 [Amoxapine]	DILI negative

Test system: PHH 2D sandwich cultures
Conditions: PHH 2D sandwich cultures, 100x Cmax; ref Xu 2008; cited from earlier work

SMILES	2Dsw (Xu 2008) 100x
Clc1ccc2c(c1)C(N1CCNCC1)=Nc1ccccc1O2 [Amoxapine]	Negative
COC(=O)C1=C(C)NC(C)=C(C(=O)OCC(C)C)C1c1ccccc1[N+](=O)[O-] (centres unmarked) [Nisoldipine]	Negative
Cc1cc(C2CCCCC2)n(O)c(=O)c1 [Ciclopirox]	Negative
O=C1NC(=O)C(c2ccccc2)(c2ccccc2)N1 [Phenytoin]	Positive
CC[C@@H]1C(=O)OC[C@@H]1Cc1cncn1C [Pilocarpine]	Negative
CN(C)C(=O)Oc1cc(OC(=O)N(C)C)cc(C(O)CNC(C)(C)C)c1 (centres unmarked) [Bambuterol]	Negative

Test system: not given
Conditions: ref DrugBank and Prescribers' Digital Reference database; cited from earlier work

SMILES	Extent of hepatic metabolism
CCCCNc1cc(C(=O)O)cc(S(N)(=O)=O)c1Oc1ccccc1 [Bumetanide]	Moderate
Clc1ccc2c(c1)C(N1CCNCC1)=Nc1ccccc1O2 [Amoxapine]	Extensive
COC(=O)C1=C(C)NC(C)=C(C(=O)OCC(C)C)C1c1ccccc1[N+](=O)[O-] (centres unmarked) [Nisoldipine]	Extensive
CNC(=O)Oc1ccc2c(c1)[C@]1(C)CCN(C)[C@@H]1N2C [Physostigmine]	Extensive
Cc1cc(C2CCCCC2)n(O)c(=O)c1 [Ciclopirox]	Extensive
O=C1NC(=O)C(c2ccccc2)(c2ccccc2)N1 [Phenytoin]	Extensive
Fc1ccc([C@@H]2CCNC[C@H]2COc2ccc3c(c2)OCO3)cc1 [Paroxetine]	Extensive
CC[C@@H]1C(=O)OC[C@@H]1Cc1cncn1C [Pilocarpine]	Minimal
CN(C)C(=O)Oc1cc(OC(=O)N(C)C)cc(C(O)CNC(C)(C)C)c1 (centres unmarked) [Bambuterol]	Extensive

Test system: not given
Conditions: human, in vivo; cited from earlier work

SMILES	Cmax
CNC(=O)Oc1ccc2c(c1)[C@]1(C)CCN(C)[C@@H]1N2C [Physostigmine]	0.018 µM

Same assay, conditions: therapeutic total cmax; ref PMID; cited from earlier work

SMILES	Cmax
CCCCNc1cc(C(=O)O)cc(S(N)(=O)=O)c1Oc1ccccc1 [Bumetanide]	0.08 µM
Clc1ccc2c(c1)C(N1CCNCC1)=Nc1ccccc1O2 [Amoxapine]	0.22 µM
COC(=O)C1=C(C)NC(C)=C(C(=O)OCC(C)C)C1c1ccccc1[N+](=O)[O-] (centres unmarked) [Nisoldipine]	0.013 µM
Cc1cc(C2CCCCC2)n(O)c(=O)c1 [Ciclopirox]	0.373 µM
O=C1NC(=O)C(c2ccccc2)(c2ccccc2)N1 [Phenytoin]	21.7 µM
Fc1ccc([C@@H]2CCNC[C@H]2COc2ccc3c(c2)OCO3)cc1 [Paroxetine]	0.05 µM
CC[C@@H]1C(=O)OC[C@@H]1Cc1cncn1C [Pilocarpine]	0.084 µM
CN(C)C(=O)Oc1cc(OC(=O)N(C)C)cc(C(O)CNC(C)(C)C)c1 (centres unmarked) [Bambuterol]	0.01 µM
